Reference: ChEMBL document CHEMBL3045084, “Synthesis, antitubercular activity, and QSAR analysis of substituted nitroaryl analogs: chalcone, pyrazole, isoxazole, and pyrimidines” (2013)
In brackets after ≈: the same amount, converted by molar mass.

System: Mycobacterium tuberculosis
Assay: Antitubercular activity against Mycobacterium tuberculosis H37Rv ATCC 27294 assessed as growth inhibition after 28 days by agar dilution method
Type: functional
Settings: for MIC: Mycobacterium tuberculosis, H37Rv ATCC 27294, 672 h

Row | SMILES | -logMIC | MIC [µM]
1 | O=C(/C=C/c1ccc(Cl)cc1)c1ccc([N+](=O)[O-])cc1 | 4.362 | 43.5 (≈ 12.5 µg/mL)
2 | CN(C)c1ccc(/C=C/C(=O)c2ccc([N+](=O)[O-])cc2)cc1 | 4.074 | 84.5 (≈ 25 µg/mL)
3 | CN(C)c1ccc(C2CC(c3ccc([N+](=O)[O-])cc3)=NN2)cc1 (stereo not drawn) | 3.489 | 323 (≈ 100 µg/mL)
4 | COc1cc(C2CC(c3ccc([N+](=O)[O-])cc3)=NC(=O)N2)cc(OC)c1OC (stereo not drawn) | 3.585 | 260 (≈ 100 µg/mL)
5 | O=[N+]([O-])c1ccc(C2=NC(=S)NC(c3ccc(Cl)cc3Cl)C2)cc1 (stereo not drawn) | 4.481 | 32.9 (≈ 12.5 µg/mL)
6 | COc1ccc(C2CC(c3ccc([N+](=O)[O-])cc3)=NC(=S)N2)cc1OC (stereo not drawn) | 3.869 | 135 (≈ 50.1 µg/mL)
7 | COc1ccc(OC)c(C2CC(c3ccc([N+](=O)[O-])cc3)=NC(=S)N2)c1 (stereo not drawn) | 3.869 | 135 (≈ 50.1 µg/mL)
8 | O=[N+]([O-])c1ccc(C2=NC(=S)NC(c3ccc(F)cc3)C2)cc1 (stereo not drawn) | 4.418 | 38 (≈ 12.5 µg/mL)
9 | O=[N+]([O-])c1ccc(C2=NC(=S)NC(c3ccc(Br)cc3)C2)cc1 (stereo not drawn) | 4.492 | 32 (≈ 12.5 µg/mL)
10 | COc1cc(C2CC(c3ccc([N+](=O)[O-])cc3)=NC(=S)N2)cc(OC)c1OC (stereo not drawn) | 3.601 | 249 (≈ 100 µg/mL)
11 | CN(C)c1ccc(C2CC(c3ccc([N+](=O)[O-])cc3)=NC(=S)N2)cc1 (stereo not drawn) | 3.848 | 141 (≈ 50.1 µg/mL)
12 | COc1cccc(C2CC(c3ccc([N+](=O)[O-])cc3)=NO2)c1 (stereo not drawn) |  | > 169
13 | O=[N+]([O-])c1ccc(C2=NOC(c3ccc(Cl)cc3)C2)cc1 (stereo not drawn) | 4.08 | 83.3 (≈ 25.2 µg/mL)
14 | O=[N+]([O-])c1ccc(C2=NOC(c3cccc(Cl)c3)C2)cc1 (stereo not drawn) |  | > 83.3
15 | COc1ccc(C2CC(c3ccc([N+](=O)[O-])cc3)=NO2)cc1OC (stereo not drawn) | 4.116 | 76.7 (≈ 25.2 µg/mL)
16 | O=[N+]([O-])c1ccc(C2=NOC(c3ccc(Cl)cc3Cl)C2)cc1 (stereo not drawn) | 4.428 | 37.3 (≈ 12.6 µg/mL)
17 | O=[N+]([O-])c1ccc(C2=NOC(c3ccc(F)cc3)C2)cc1 (stereo not drawn) | 4.357 | 44 (≈ 12.6 µg/mL)
18 | O=C(/C=C/c1ccc(Br)cc1)c1ccc([N+](=O)[O-])cc1 | 5.026 | 9.43 (≈ 3.13 µg/mL)
19 | COc1cccc(C2CC(c3ccc([N+](=O)[O-])cc3)=NC(=O)N2)c1 (stereo not drawn) | 3.51 | 308 (≈ 100 µg/mL)
20 | COc1ccc(C2CC(c3ccc([N+](=O)[O-])cc3)=NC(=O)N2)cc1 (stereo not drawn) | 3.811 | 154 (≈ 50.1 µg/mL)
21 | O=C1N=C(c2ccc([N+](=O)[O-])cc2)CC(c2ccc(Cl)cc2)N1 (stereo not drawn) | 4.419 | 38 (≈ 12.5 µg/mL)
22 | O=C1N=C(c2ccc([N+](=O)[O-])cc2)CC(c2cccc(Cl)c2)N1 (stereo not drawn) | 4.419 | 38 (≈ 12.5 µg/mL)
23 | COc1ccc(C2CC(c3ccc([N+](=O)[O-])cc3)=NC(=O)N2)cc1OC (stereo not drawn) | 3.548 | 282 (≈ 100 µg/mL)
24 | COc1ccc(OC)c(C2CC(c3ccc([N+](=O)[O-])cc3)=NC(=O)N2)c1 (stereo not drawn) |  | > 282
25 | O=C1N=C(c2ccc([N+](=O)[O-])cc2)CC(c2ccc(Cl)cc2Cl)N1 (stereo not drawn) | 4.462 | 34.3 (≈ 12.5 µg/mL)
26 | O=C1N=C(c2ccc([N+](=O)[O-])cc2)CC(c2ccc(F)cc2)N1 (stereo not drawn) | 4.697 | 20 (≈ 6.26 µg/mL)

Row | SMILES | -logMIC | MIC [µM]
27 | O=C1N=C(c2ccc([N+](=O)[O-])cc2)CC(c2ccc(Br)cc2)N1 (stereo not drawn) | 4.474 | 33.4 (≈ 12.5 µg/mL)
28 | CN(C)c1ccc(C2CC(c3ccc([N+](=O)[O-])cc3)=NC(=O)N2)cc1 (stereo not drawn) | 3.527 | 296 (≈ 100 µg/mL)
29 | COc1cccc(C2CC(c3ccc([N+](=O)[O-])cc3)=NC(=S)N2)c1 (stereo not drawn) | 3.531 | 293 (≈ 100 µg/mL)
30 | COc1ccc(C2CC(c3ccc([N+](=O)[O-])cc3)=NC(=S)N2)cc1 (stereo not drawn) | 3.531 | 293 (≈ 100 µg/mL)
31 | O=[N+]([O-])c1ccc(C2=NC(=S)NC(c3ccc(Cl)cc3)C2)cc1 (stereo not drawn) | 4.439 | 36.2 (≈ 12.5 µg/mL)
32 | O=[N+]([O-])c1ccc(C2=NC(=S)NC(c3cccc(Cl)c3)C2)cc1 (stereo not drawn) | 4.138 | 72.5 (≈ 25.1 µg/mL)
33 | COc1ccc(/C=C/C(=O)c2ccc([N+](=O)[O-])cc2)cc1OC |  | > 79.9
34 | COc1ccc(OC)c(/C=C/C(=O)c2ccc([N+](=O)[O-])cc2)c1 | 4.098 | 79.9 (≈ 25 µg/mL)
35 | O=C(/C=C/c1ccc(Cl)cc1Cl)c1ccc([N+](=O)[O-])cc1 | 5.315 | 4.84 (≈ 1.56 µg/mL)
36 | O=C(/C=C/c1ccc(F)cc1)c1ccc([N+](=O)[O-])cc1 | 4.938 | 11.6 (≈ 3.13 µg/mL)
37 | COc1cccc(C2CC(c3ccc([N+](=O)[O-])cc3)=NN2)c1 (stereo not drawn) | 3.47 | 339 (≈ 101 µg/mL)
38 | COc1ccc(C2CC(c3ccc([N+](=O)[O-])cc3)=NN2)cc1 (stereo not drawn) |  | > 339
39 | O=[N+]([O-])c1ccc(C2=NNC(c3ccc(Cl)cc3)C2)cc1 (stereo not drawn) | 4.079 | 83.6 (≈ 25.2 µg/mL)
40 | O=[N+]([O-])c1ccc(C2=NNC(c3cccc(Cl)c3)C2)cc1 (stereo not drawn) | 4.079 | 83.6 (≈ 25.2 µg/mL)
41 | COc1ccc(C2CC(c3ccc([N+](=O)[O-])cc3)=NN2)cc1OC (stereo not drawn) | 3.813 | 154 (≈ 50.4 µg/mL)
42 | COc1ccc(OC)c(C2CC(c3ccc([N+](=O)[O-])cc3)=NN2)c1 (stereo not drawn) | 3.813 | 154 (≈ 50.4 µg/mL)
43 | O=[N+]([O-])c1ccc(C2=NNC(c3ccc(Cl)cc3Cl)C2)cc1 (stereo not drawn) | 4.427 | 37.4 (≈ 12.6 µg/mL)
44 | O=[N+]([O-])c1ccc(C2=NNC(c3ccc(F)cc3)C2)cc1 (stereo not drawn) | 4.355 | 44.2 (≈ 12.6 µg/mL)
45 | COc1cc(C2CC(c3ccc([N+](=O)[O-])cc3)=NN2)cc(OC)c1OC (stereo not drawn) | 3.852 | 141 (≈ 50.3 µg/mL)
46 | O=[N+]([O-])c1ccc(C2=NNC(c3ccc(Br)cc3)C2)cc1 (stereo not drawn) | 4.139 | 72.7 (≈ 25.2 µg/mL)
47 | COc1cccc(/C=C/C(=O)c2ccc([N+](=O)[O-])cc2)c1 | 4.054 | 88.3 (≈ 25 µg/mL)
48 | COc1ccc(/C=C/C(=O)c2ccc([N+](=O)[O-])cc2)cc1 |  | > 88.3
49 | O=C(/C=C/c1cccc(Cl)c1)c1ccc([N+](=O)[O-])cc1 | 4.362 | 43.5 (≈ 12.5 µg/mL)
50 | CC[C@@H](CO)NCCN[C@@H](CC)CO [ETHAMBUTOL] | 5.117 | 7.63 (≈ 1.56 µg/mL)
51 | NNC(=O)c1ccncc1 [ISONIAZID] | 6.447 | 0.357 (≈ 0.049 µg/mL)
52 | CO[C@H]1/C=C/O[C@@]2(C)Oc3c(C)c(O)c4c(O)c(c(/C=N/N5CCN(C)CC5)c(O)c4c3C2=O)NC(=O)/C(C)=C\C=C\[C@H](C)[C@H](O)[C@@H](C)[C@@H](O)[C@@H](C)[C@H](OC(C)=O)[C@@H]1C [RIFAMPIN] | 6.924 | 0.119 (≈ 0.0979 µg/mL)
